Assay results taken from US11857604B2, “Nanovectors and uses” (NH THERAGUIX, priority 2017, dated 2024).

Experiment: physisorption of active substance on nanoparticles: tangential filtration (3 kDa Vivaspin), subnatant analysed by UV-visible/fluorescence
Type: physicochemical
Conditions: for concentration up to which retention of the active substance is observed (minimum) / load content by weight: AGuIX® at 100 mM [Gd3+] = 100 g/l of nanoparticles
Experimental: During the various examples, the maximum drug load content on polysiloxane nanoparticles was determined, when said particles are present at a concentration corresponding to a concentration used during clinical trials for the nanoparticle in question. Increasing concentrations of active substances were thus brought into contact with the nanoparticles. Solutions are purified by tangential filtration. The molecules which have not be able to adsorb to the surface of the nanoparticles pass through the membrane and are found in the subnatant, where they can be detected by spectroscopic techniques such as UV/Visible absorption or else fluorescence spectroscopy (FIG. 2).
This solution is placed in a 3 kDa Vivaspin®, and a tangential filtration cycle is carried out in order to obtain a supernatant of 200 μl. The subnatant is analysed by UV-visible analysis. The supernatant is diluted 50-fold and is analysed by UV-visible analysis.
This solution is placed in a 3 kDa Vivaspin®, and a tangential filtration cycle is carried out so as to obtain a supernatant of 200 μl. The subnatant is analysed by UV-visible analysis and fluorometry after 20-fold dilution.
This solution is placed in a 3 kDa Vivaspin®, and a tangential filtration cycle is carried out so as to obtain a supernatant of 160 μl. The subnatant is analysed by UV-visible analysis. The cisplatin is detectable by UV/VIS absorption at a wavelength of 706 nm after reaction with ODPA. For the reaction with cisplatin, a solution of ODPA at 1.4 mg/ml and a phosphate buffer (pH 6.8) are prepared. The subnatant is diluted 5-fold. 140 μl of this solution are added to 200 μl of buffer and 100 μl of ODPA. The resulting solution is heated at 100° C. for 15 min. Once the reaction is finished and the temperature has returned to ambient temperature, 560 μl of DMF are added. The final solution is filtered and then analysed by UV-visible analysis.

| concentration up to which retention of the active substance is observed (minimum) [µg/mL] | load content by weight | limiting concentration up to which the peptide adsorbs at the surface of the nanoparticles (AGuIX® 100 mM, absorption at 280 nm of subnatants (FIG. 12)) | Molecule | limiting concentration up to which cisplatin adsorbs at the surface of the nanoparticles (AGuIX® 100 mM, absorption at 706 nm of ODPA-treated subnatants (FIG. 16)) |
| --- | --- | --- | --- | --- |
| ≥ 112 | greater than 1.12 mg/g of nanoparticles | – | COc1cccc2c1C(=O)c1c(O)c3c(c(O)c1C2=O)C[C@@](O)(C(=O)CO)C[C@@H]3O[C@H]1C[C@H](N)[C@H](O)[C@H](C)O1 [doxorubicin] | – |
| ≥ 2000 | greater than 20 mg/g of nanoparticles | approximately 2 g·L^1 | tyr3-octreotate [TATE peptide] | – |

| Molecule | concentration up to which retention of the active substance is observed (minimum) [µg/mL] | load content by weight | limiting concentration up to which the peptide adsorbs at the surface of the nanoparticles (AGuIX® 100 mM, absorption at 280 nm of subnatants (FIG. 12)) | limiting concentration up to which cisplatin adsorbs at the surface of the nanoparticles (AGuIX® 100 mM, absorption at 706 nm of ODPA-treated subnatants (FIG. 16)) |
| --- | --- | --- | --- | --- |
| N.N.[Cl][Pt][Cl] [cisplatin] | ≥ 240 | greater than 2.4 mg/g of nanoparticles | – | approximately 240 mg·L^−1 |
